Test results from patent US10968178B2, “IP6K inhibitors” (TAKEDA PHARMACEUTICAL COMPANY LIMITED, priority 2017, dated 2021).

Experiments:
Assay type in all cases: biochemical
[1] = molecular target: T1, human IP6K1 (Homo sapiens, UniProt Q92551); experiment: IP6K enzyme inhibitory assay (ADP-Glo Kinase Assay), human IP6K1; conditions: compound concentration 0.1 μM; for inhibition at 0.1 µM: read-out: ADP-Glo method inhibitory rate (%) human IP6K1
T1 construct: human IP6K1 (1-441) gene; GST; made in house; host or cells: Sf-9 insect cells
T1 sequence (Q92551 whole entry): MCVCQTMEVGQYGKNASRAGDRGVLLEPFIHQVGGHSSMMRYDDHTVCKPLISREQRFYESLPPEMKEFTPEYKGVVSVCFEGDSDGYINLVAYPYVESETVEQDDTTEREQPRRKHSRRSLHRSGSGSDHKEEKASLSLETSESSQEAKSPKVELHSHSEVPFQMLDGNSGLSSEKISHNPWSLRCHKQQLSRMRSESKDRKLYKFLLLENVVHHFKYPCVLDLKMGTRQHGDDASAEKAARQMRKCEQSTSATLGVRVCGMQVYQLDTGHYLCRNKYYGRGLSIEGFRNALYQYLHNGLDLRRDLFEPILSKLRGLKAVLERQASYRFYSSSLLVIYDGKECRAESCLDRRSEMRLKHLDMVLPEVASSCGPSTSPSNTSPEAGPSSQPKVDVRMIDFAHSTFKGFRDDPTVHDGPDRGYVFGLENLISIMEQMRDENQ
Description: (§1) IP6K Enzyme Inhibitory Assay
(§2) Human IP6K3 enzyme was prepared by transducing human IP6K3 (1-410) gene into BL21 (DE3) Escherichia coli and purifying by Ni-NTA (nickel-nitrilotriacetic acid) affinity column. […] The enzymes were used after preservation at −70° C. The IP6K enzyme inhibitory activity of the test compound was measured by the following experiment method and using ADP-Glo™ Kinase Assay (manufactured by Promega). A test compound diluted with an assay buffer (20 mM HEPES (pH 7.5), 6 mM MgCl2, 0.01% Tween-20, 1 mM DTT) was first added by 2 μL to a 384 well plate. […] The IP6K enzyme solution diluted with the assay buffer was added by 2 μL to start the enzyme reaction. Incubation was performed at room temperature for a given time (120 min for rat IP6K3 alone, 60 min for others). After incubation at room temperature, ADP-Glo solution prepared according to the protocol of Promega was added by 3 μL to the 384 well plate and reacted at room temperature for 30 min. Thereafter, Kinase-Detection solution was added by 6 μL to the 384 well plate and reacted at room temperature for 60 min. After the reaction, the luminescence intensity was measured by a plate reader Envision (manufactured by PerkinElmer).

[2] = molecular target: T2, human IP6K2 (Homo sapiens, UniProt Q9UHH9); experiment: IP6K enzyme inhibitory assay (ADP-Glo Kinase Assay), human IP6K2; conditions: compound concentration 0.1 μM; for inhibition at 0.1 µM: read-out: ADP-Glo method inhibitory rate (%) human IP6K2
T2 construct: human IP6K2 (1-426) gene; GST; made in house; host or cells: Sf-9 insect cells
T2 sequence (Q9UHH9 1-426): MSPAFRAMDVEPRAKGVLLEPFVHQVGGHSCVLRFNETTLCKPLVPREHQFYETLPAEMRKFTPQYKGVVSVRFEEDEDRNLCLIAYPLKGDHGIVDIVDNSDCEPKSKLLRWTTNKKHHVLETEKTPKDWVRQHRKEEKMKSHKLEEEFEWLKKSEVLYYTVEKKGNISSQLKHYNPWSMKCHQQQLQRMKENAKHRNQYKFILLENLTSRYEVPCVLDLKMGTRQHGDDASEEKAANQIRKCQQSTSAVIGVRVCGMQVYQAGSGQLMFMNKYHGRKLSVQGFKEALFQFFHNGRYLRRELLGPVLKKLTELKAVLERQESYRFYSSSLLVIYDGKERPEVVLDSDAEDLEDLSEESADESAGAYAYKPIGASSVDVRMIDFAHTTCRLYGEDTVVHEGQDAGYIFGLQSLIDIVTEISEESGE
Description: as §1, §2

[3] = molecular target: T3, human IP6K3 (Homo sapiens, UniProt Q96PC2); experiment: IP6K enzyme inhibitory assay (ADP-Glo Kinase Assay), human IP6K3; conditions: compound concentration 0.1 μM; for inhibition at 0.1 µM: read-out: ADP-Glo method inhibitory rate (%) human IP6K3
T3 construct: human IP6K3 (1-410) gene; made in house; host or cells: BL21 (DE3) Escherichia coli
T3 sequence (Q96PC2 1-410): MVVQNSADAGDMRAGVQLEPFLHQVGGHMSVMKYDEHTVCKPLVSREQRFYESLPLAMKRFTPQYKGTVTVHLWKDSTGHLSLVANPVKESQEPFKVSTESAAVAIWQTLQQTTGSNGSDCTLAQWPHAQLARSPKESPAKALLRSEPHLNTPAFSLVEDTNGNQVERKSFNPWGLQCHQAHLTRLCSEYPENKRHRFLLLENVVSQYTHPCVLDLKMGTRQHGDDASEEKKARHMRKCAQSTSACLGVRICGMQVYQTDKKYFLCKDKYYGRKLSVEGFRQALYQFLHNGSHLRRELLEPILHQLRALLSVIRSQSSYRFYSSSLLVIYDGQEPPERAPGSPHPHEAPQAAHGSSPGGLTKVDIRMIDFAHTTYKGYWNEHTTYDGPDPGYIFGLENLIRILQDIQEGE
Description: as §1, §2

## Cc1ccc(O[C@H]2CC[C@@]3(CC2)C(=O)Nc2ccc(C(=O)O)cc23)cc1 [Example 43, (1r,4r)-4-(4-methylphenoxy)-2′-oxo-1′,2′-dihydrospiro[cyclohexane-1,3′-indole]-5′-carboxylic acid]
[1]
  inhibition at 0.1 µM: 98%
[2]
  inhibition at 0.1 µM: 99%
[3]
  inhibition at 0.1 µM: 100%

## N#Cc1ccccc1O[C@H]1CC[C@@]2(CC1)C(=O)Nc1ccc(C(=O)O)cc12 [Example 44, (1r,4r)-4-(2-cyanophenoxy)-2′-oxo-1′,2′-dihydrospiro[cyclohexane-1,3′-indole]-5′-carboxylic acid]
[1]
  inhibition at 0.1 µM: 88%
[2]
  inhibition at 0.1 µM: 83%
[3]
  inhibition at 0.1 µM: 94%

## N#Cc1ccc(O[C@H]2CC[C@@]3(CC2)C(=O)Nc2ccc(C(=O)O)cc23)cc1 [Example 45, (1r,4r)-4-(4-cyanophenoxy)-2′-oxo-1′,2′-dihydrospiro[cyclohexane-1,3′-indole]-5′-carboxylic acid]
[1]
  inhibition at 0.1 µM: 96%
[2]
  inhibition at 0.1 µM: 93%
[3]
  inhibition at 0.1 µM: 97%

## Cc1ccc(O[C@H]2CC[C@@]3(CC2)C(=O)Nc2ccc(C(=O)O)cc23)cc1C [Example 46, (1r,4r)-4-(3,4-dimethylphenoxy)-2′-oxo-1′,2′-dihydrospiro[cyclohexane-1,3′-indole]-5′-carboxylic acid]
[1]
  inhibition at 0.1 µM: 97%
[2]
  inhibition at 0.1 µM: 98%
[3]
  inhibition at 0.1 µM: 99%

## Cc1ccc(O[C@H]2CC[C@@]3(CC2)C(=O)Nc2ccc(C(=O)O)cc23)c(C)c1 [Example 47, (1r,4r)-4-(2,4-dimethylphenoxy)-2′-oxo-1′,2′-dihydrospiro[cyclohexane-1,3′-indole]-5′-carboxylic acid]
[1]
  ADP-Glo method inhibitory rate (%) human IP6K1: 99%
[2]
  ADP-Glo method inhibitory rate (%) human IP6K2: 96%
[3]
  ADP-Glo method inhibitory rate (%) human IP6K3: 99%

## Cc1cc(C)cc(O[C@H]2CC[C@@]3(CC2)C(=O)Nc2ccc(C(=O)O)cc23)c1 [Example 48, (1r,4r)-4-(3,5-dimethylphenoxy)-2′-oxo-1′,2′-dihydrospiro[cyclohexane-1,3′-indole]-5′-carboxylic acid]
[1]
  inhibition at 0.1 µM: 86%
[2]
  inhibition at 0.1 µM: 91%
[3]
  inhibition at 0.1 µM: 97%

## COc1ccc(O[C@H]2CC[C@@]3(CC2)C(=O)Nc2ccc(C(=O)O)cc23)cc1 [Example 49, (1r,4r)-4-(4-methoxyphenxoy)-2′-oxo-1′,2′-dihydrospiro[cyclohexane-1,3′-indole]-5′-carboxylic acid]
[1]
  inhibition at 0.1 µM: 100%
[2]
  inhibition at 0.1 µM: 99%
[3]
  inhibition at 0.1 µM: 100%

## Cc1cc(F)ccc1O[C@H]1CC[C@@]2(CC1)C(=O)Nc1ccc(C(=O)O)cc12 [Example 50, (1r,4r)-4-(4-fluoro-2-methylphenoxy)-2′-oxo-1′,2′-dihydrospiro[cyclohexane-1,3′-indole]-5′-carboxylic acid]
[1]
  inhibition at 0.1 µM: 101%
[2]
  inhibition at 0.1 µM: 100%
[3]
  inhibition at 0.1 µM: 96%

## Cc1cc(O[C@H]2CC[C@@]3(CC2)C(=O)Nc2ccc(C(=O)O)cc23)ccc1F [Example 51, (1r,4r)-4-(4-fluoro-3-methylphenoxy)-2′-oxo-1′,2′-dihydrospiro[cyclohexane-1,3′-indole]-5′-carboxylic acid]
[1]
  inhibition at 0.1 µM: 98%
[2]
  inhibition at 0.1 µM: 97%
[3]
  inhibition at 0.1 µM: 96%

## Cc1ccc(O[C@H]2CC[C@@]3(CC2)C(=O)Nc2ccc(C(=O)O)cc23)cc1F [Example 52, (1r,4r)-4-(3-fluoro-4-methylphenoxy)-2′-oxo-1′,2′-dihydrospiro[cyclohexane-1,3′-indole]-5′-carboxylic acid]
[1]
  inhibition at 0.1 µM: 99%
[2]
  inhibition at 0.1 µM: 100%
[3]
  inhibition at 0.1 µM: 96%

## Cc1cccc(O[C@H]2CC[C@@]3(CC2)C(=O)Nc2ccc(C(=O)O)cc23)c1F [Example 53, (1r,4r)-4-(2-fluoro-3-methylphenoxy)-2′-oxo-1′,2′-dihydrospiro[cyclohexane-1,3′-indole]-5′-carboxylic acid]
[1]
  inhibition at 0.1 µM: 96%
[2]
  inhibition at 0.1 µM: 96%
[3]
  inhibition at 0.1 µM: 97%

## Cc1ccc(O[C@H]2CC[C@@]3(CC2)C(=O)Nc2ccc(C(=O)O)cc23)c(F)c1 [Example 54, (1r,4r)-4-(2-fluoro-4-methylphenoxy)-2′-oxo-1′,2′-dihydrospiro[cyclohexane-1,3′-indole]-5′-carboxylic acid]
[1]
  inhibition at 0.1 µM: 99%
[2]
  inhibition at 0.1 µM: 100%
[3]
  inhibition at 0.1 µM: 101%

## O=C(O)c1ccc2c(c1)[C@]1(CC[C@@H](Oc3ccc(F)c(F)c3)CC1)C(=O)N2 [Example 55, (1r,4r)-4-(3,4-difluorophenoxy)-2′-oxo-1′,2′-dihydrospiro[cyclohexane-1,3′-indole]-5′-carboxylic acid]
[1]
  inhibition at 0.1 µM: 96%
[2]
  inhibition at 0.1 µM: 95%
[3]
  inhibition at 0.1 µM: 99%

## O=C(O)c1ccc2c(c1)[C@]1(CC[C@@H](Oc3cc(F)ccc3F)CC1)C(=O)N2 [Example 56, (1r,4r)-4-(2,5-difluorophenoxy)-2′-oxo-1′,2′-dihydrospiro[cyclohexane-1,3′-indole]-5′-carboxylic acid]
[1]
  inhibition at 0.1 µM: 97%
[2]
  inhibition at 0.1 µM: 92%
[3]
  inhibition at 0.1 µM: 99%

## O=C(O)c1ccc2c(c1)[C@]1(CC[C@@H](Oc3ccc(F)cc3F)CC1)C(=O)N2 [Example 57, (1r,4r)-4-(2,4-difluorophenoxy)-2′-oxo-1′,2′-dihydrospiro[cyclohexane-1,3′-indole]-5′-carboxylic acid]
[1]
  inhibition at 0.1 µM: 99%
[2]
  inhibition at 0.1 µM: 97%
[3]
  inhibition at 0.1 µM: 100%

## O=C(O)c1ccc2c(c1)[C@]1(CC[C@@H](Oc3cc(F)cc(F)c3)CC1)C(=O)N2 [Example 58, (1r,4r)-4-(3,5-difluorophenoxy)-2′-oxo-1′,2′-dihydrospiro[cyclohexane-1,3′-indole]-5′-carboxylic acid]
[1]
  inhibition at 0.1 µM: 72%
[2]
  inhibition at 0.1 µM: 83%
[3]
  inhibition at 0.1 µM: 90%

## O=C(O)c1ccc2c(c1)[C@]1(CC[C@@H](Oc3cccc(F)c3F)CC1)C(=O)N2 [Example 59, (1r,4r)-4-(2,3-difluorophenoxy)-2′-oxo-1′,2′-dihydrospiro[cyclohexane-1,3′-indole]-5′-carboxylic acid]
[1]
  inhibition at 0.1 µM: 87%
[2]
  inhibition at 0.1 µM: 86%
[3]
  inhibition at 0.1 µM: 97%

## N#Cc1cccc(O[C@H]2CC[C@@]3(CC2)C(=O)Nc2ccc(C(=O)O)cc23)c1F [Example 60, (1r,4r)-4-(3-cyano-2-fluorophenoxy)-2′-oxo-1′,2′-dihydrospiro[cyclohexane-1,3′-indole]-5′-carboxylic acid]
[1]
  inhibition at 0.1 µM: 87%
[2]
  inhibition at 0.1 µM: 90%
[3]
  inhibition at 0.1 µM: 98%

## N#Cc1ccc(O[C@H]2CC[C@@]3(CC2)C(=O)Nc2ccc(C(=O)O)cc23)cc1F [Example 61, (1r,4r)-4-(4-cyano-3-fluorophenoxy)-2′-oxo-1′,2′-dihydrospiro[cyclohexane-1,3′-indole]-5′-carboxylic acid]
[1]
  inhibition at 0.1 µM: 100%
[2]
  inhibition at 0.1 µM: 95%
[3]
  inhibition at 0.1 µM: 100%

## N#Cc1cccc(F)c1O[C@H]1CC[C@@]2(CC1)C(=O)Nc1ccc(C(=O)O)cc12 [Example 62, (1r,4r)-4-(2-cyano-6-fluorophenoxy)-2′-oxo-1′,2′-dihydrospiro[cyclohexane-1,3′-indole]-5′-carboxylic acid]
[1]
  inhibition at 0.1 µM: 95%
[2]
  inhibition at 0.1 µM: 91%
[3]
  inhibition at 0.1 µM: 99%

## N#Cc1c(F)cccc1O[C@H]1CC[C@@]2(CC1)C(=O)Nc1ccc(C(=O)O)cc12 [Example 63, (1r,4r)-4-(2-cyano-3-fluorophenoxy)-2′-oxo-1′,2′-dihydrospiro[cyclohexane-1,3′-indole]-5′-carboxylic acid]
[1]
  inhibition at 0.1 µM: 69%
[2]
  inhibition at 0.1 µM: 87%
[3]
  inhibition at 0.1 µM: 96%
